Results published in patent US20090022803A1, “Oral Formulations For Delivery of Catecholic Butanes Including Ndga Compounds” (priority 2005, published 2009).

Experiments:
[1] = dog, in vivo, iv, 75 mg/kg
[2] = Stability of M4N formulations at room temperature (time to crystallized precipitation); format: physicochemical
Experimental: A 10 mL solution of M4N at a concentration of about 10 mg/mL in 40% BP-β-CD was made as follows. About 10 mL of the 40% HP-β-CD solution were added to a glass beaker containing a stir bar. The beaker was placed on a magnetic plate and the stir bar was set to stir at medium speed. About […] of M4N were slowly added to the 40% HP-β-CD in the center of the beaker with the aid of a spatula. The M4N/40% HP-β-CD mixture was stirred for 2 hr or until all M4N was uniformly suspended without any clumps being present. The M4N/40% HP-β-CD mixture was optionally heated at 80° C. for about 30 min. (or longer if a larger volume of solution was desired, for example, 1 hr at 80° C. for 100 mL of the M4N/HP-β-CD mixture), or longer as needed to ensure complete dissolution of M4N. […] The final M4N/40% HP-β-CD solution was stored at room temperature and was kept protected from light. This process may be scaled up or down to obtain the requisite volume or concentration of M4N. Formulations containing M4N in other cyclodextrin solutions may be similarly made, such as, for example, by substituting HP-β-CD in the process described above with other cyclodextrins.
A 100 mL solution of M4N at a concentration of about 25 mg/mL in PEG 300 was made as follows. About 100 mL of PEG 300 were added to a glass beaker containing a stir bar. The beaker was placed on a magnetic plate and the stir bar was set to stir at medium speed. About 2.5 g of M4N were slowly added to the PEG 300 in the center of the beaker with the aid of a spatula to prevent M4N from sticking to the beaker wall. The M4N/PEG 300 mixture was stirred for 24 hr or until all M4N had dissolved or was uniformly suspended without any clumps being present. The M4N/PEG 300 mixture was optionally heated at about 60° C. for about 30 min. (or longer if a larger volume of solution was desired, for example, 1 hr at 60° C. for 500 mL of the M4N/PEG 300 mixture), or longer as needed to ensure complete dissolution of M4N. […] If crystals formed, the M4N/PEG 300 solution could be heated again at 60° C. for about 1 hr, with stirring, on a hot magnetic plate until all M4N was dissolved back in solution. The final M4N/PEG 300 solution was stored at room temperature and was kept protected from light. This process may be scaled up or down to obtain the requisite volume or concentration of M4N. Formulations containing M4N in other PEGs may be similarly made, such as, for example, by substituting PEG 300 in the process described above with PEG 400 or PEG 400 monolaurate.
Formulations containing M4N in other water-insoluble lipids combined with non-ionic, ionic or amphipathic surfactants or water-soluble organic solvents may be similarly made, such as, for example, by substituting sesame oil in the process described above with corn oil, olive oil, soybean oil, peppermint oil, or mineral oil and substituting Tween® 20 with Tween® 80, TPGS, lecithin, PEG 300, PEG 400, PEG 400 monolaurate, glycerol, PVP, PG, or other solubilizing agents, and combinations thereof. Stability in reference to the clear liquid solutions herein refers to the time it takes to form crystallized precipitation in solution. A stable solution is one that is clear and free of particulates for an extended period of time.

For `COc1ccc(C[C@@H](C)[C@@H](C)Cc2ccc(OC)c(OC)c2)cc1OC` [Formulation M4N, meso-1,4-bis(3,4-dimethoxyphenyl)-2,3-dimethylbutane], the Clinical observations [1] was “diarrhea, emesis, and ataxia”, the “Stability at Room Temperature” value ([2]; 0.3% (v/v) Piperin, 49.8% (v/v) PEG 400, 49.8% (v/v) Tween ® 20, M4N 60 mg/mL, suspension) was >9 days and the “Stability at Room Temperature” value ([2]; 0.4% (v/v) Cinnamadehyde, 49.8%(v/v) PEG 400, 49.8% (v/v) Tween ® 20, M4N 60 mg/mL) was >4 days. The “Stability at Room Temperature” value ([2]; 0.4% (v/v) Cinnamaldehyde, 4.6% (v/v) Peppermint Oil, 47.5% (v/v) PEG 400, 47.5% (v/v) Tween ® 20, M4N 60 mg/mL) was >2 days, the “Stability at Room Temperature” value ([2]; 0.4% (v/v) Eugenol, 49.8% (v/v) Tween ® 20, 49.8% (v/v) PEG 400, M4N 60 mg/mL) was >2 days and the “Stability at Room Temperature” value ([2]; 3% (w/v)Glycerol Monostearate, 48.5% (v/v) PEG 400, 48.5% (v/v) Tween ® 20, M4N 60 mg/mL) was >1 days. For the same molecule, the “Stability at Room Temperature” value ([2]; 5% (v/v) Peppermint Oil, 47.5% (v/v) Tween ® 20, 47.5% (v/v) PEG 400, M4N 60 mg/mL) was >2 days, the “Stability at Room Temperature” value ([2]; 10% TPGS (w/v), 50% PEG 400 (v/v), M4N 50 mg/ml, suspension) was >7 days and the “Stability at Room Temperature” value ([2]; 25%(w/v) Lecithin, 37.5% (v/v) PEG 400, 37.5% (v/v) Tween ® 20, M4N 60 mg/mL) was >14 days. For the same molecule, the “Stability at Room Temperature” value ([2]; 47.5% (v/v) Tween ® 20, 47.5% (v/v) PEG 400, 2.5% (w/v) Beeswax 2.5% (w/v) PEG 3350, M4N 60 mg/mL) was >4 days, the “Stability at Room Temperature” value ([2]; 47.5% Tween ® 20 (v/v), 47.5% PEG 400 (v/v), 5% Beeswax (w/v), M4N 200 mg/g, waxy solid) was >3 days and the “Stability at Room Temperature” value ([2]; 50% Tween ® 20 (v/v), 50% PEG 400 (v/v), M4N 30 mg/ml) was >3 days. The “Stability at Room Temperature” value ([2]; 50% Tween ® 20 (v/v), 50% PEG 400 (v/v), M4N 40 mg/ml) was >3 days, the “Stability at Room Temperature” value ([2]; 50% Tween ® 20 (v/v), 50% PEG 400 (v/v), M4N 50 mg/ml) was >3 days and the “Stability at Room Temperature” value ([2]; 50% Tween ® 20 (v/v), 50% PEG 400 (v/v), M4N 60 mg/ml) was >3 days. The “Stability at Room Temperature” value ([2]; 50.3% (v/v) Tween ® 20, 44.6% (v/v) PEG 400, 2.4% (w/v) Beeswax, 2.4% (w/v) PEG 3350, 0.3% (w/v) Naringenin, M4N 60 mg/mL) was >4 days, the “Stability at Room Temperature” value ([2]; Glycerol Monoleate 100% (w/v), M4N 0.10 mg/ml, remains in suspension, can be mixed back together) was “for up to 10 days” and the “Stability at Room Temperature” value ([2]; Glycerol Monoleate 100% (w/v), M4N 0.25 mg/ml, remains in suspension, can be mixed back together) was “for up to 10 days”. The “Stability at Room Temperature” value ([2]; Glycerol Monoleate 100% (w/v), M4N 1.00 mg/ml, remains in suspension, can be mixed back together) was “for up to 10 days”, the “Stability at Room Temperature” value ([2]; Glycerol Monoleate 100% (w/v), M4N 5.0 mg/ml, remains in suspension, can be mixed back together) was “for up to 10 days” and the “Stability at Room Temperature” value ([2]; Glycerol Monoleate 100% (w/v), M4N 10.0 mg/ml, remains in suspension, can be mixed back together) was “for up to 10 days”. The “Stability at Room Temperature” value ([2]; Glycerol Monoleate 100% (w/v), M4N 12.0 mg/ml, remains in suspension, can be mixed back together) was “for up to 10 days”, the “Stability at Room Temperature” value ([2]; Glycerol Monoleate 100% (w/v), M4N 15.0 mg/ml, remains in suspension, can be mixed back together) was “for up to 10 days” and the “Stability at Room Temperature” value ([2]; Glycerol Monoleate 100% (w/v), M4N 17.5 mg/ml, remains in suspension, can be mixed back together) was “for up to 10 days”. The “Stability at Room Temperature” value ([2]; Glycerol Monoleate 100% (w/v), M4N 20.0 mg/ml, remains in suspension, can be mixed back together) was “for up to 10 days”, the “Stability at Room Temperature” value ([2]; Glycerol Monoleate 100% (w/v), M4N 25.0 mg/ml, remains in suspension, can be mixed back together) was “for up to 10 days” and the “Stability at Room Temperature” value ([2]; Glycerol Monoleate 100% (w/v), M4N 30.0 mg/ml, remains in suspension, can be mixed back together) was “for up to 10 days”. For the same molecule, the “Stability at Room Temperature” value ([2]; Glycerol Monoleate 100% (w/v), M4N 40.0 mg/ml, remains in suspension, can be mixed back together) was “for up to 10 days”, the “Stability at Room Temperature” value ([2]; Glycerol Monoleate 100% (w/v), M4N 50.0 mg/ml, remains in suspension, can be mixed back together) was “for up to 10 days” and the “Stability at Room Temperature” value ([2]; Glycerol Monoleate 100% (w/v), M4N 60.0 mg/ml, remains in suspension, can be mixed back together) was “for up to 10 days”. For the same molecule, the “Stability at Room Temperature” value ([2]; Glycerol Monoleate 100% (w/v), M4N 65.0 mg/ml, remains in suspension, can be mixed back together) was “for up to 10 days”, the “Stability at Room Temperature” value ([2]; Glycerol Monoleate 100% (w/v), M4N 70.0 mg/ml, remains in suspension, can be mixed back together) was “for up to 10 days” and the “Stability at Room Temperature” value ([2]; Glycerol Monoleate 100% (w/v), M4N 80.0 mg/ml, remains in suspension, can be mixed back together) was “for up to 10 days”. For the same molecule, the “Stability at Room Temperature” value ([2]; Glycerol Monoleate 100% (w/v), M4N 100.0 mg/ml, remains in suspension, can be mixed back together) was “for up to 10 days”, the “Stability at Room Temperature” value ([2]; Glycerol Monoleate 100% (w/v), M4N 200.0 mg/ml, remains in suspension, can be mixed back together) was “for up to 10 days” and the “Stability at Room Temperature” value ([2]; Glycerol Monoleate 100% (w/v), M4N 300.0 mg/ml, remains in suspension, can be mixed back together) was “for up to 10 days”. For the same molecule, the “Stability at Room Temperature” value ([2]; Labrafil ® 100%, M4N 60 mg/mL) was >4 days, the “Stability at Room Temperature” value ([2]; Labrasol ® 100%, M4N 50 mg/mL) was >4 days and the “Stability at Room Temperature” value ([2]; Labrasol ® 100%, M4N 60 mg/mL) was >4 days. For the same molecule, the “Stability at Room Temperature” value ([2]; Labrasol ® 100%, M4N 70 mg/mL) was >4 days, the “Stability at Room Temperature” value ([2]; Labrasol ® 100%, M4N 80 mg/mL) was >4 days and the “Stability at Room Temperature” value ([2]; M4N 1 mg/mL in 20% HP-β-CD) was >7 days. For the same molecule, the “Stability at Room Temperature” value ([2]; M4N 1 mg/mL in 30% HP-β-CD) was >7 days, the “Stability at Room Temperature” value ([2]; M4N 1 mg/mL in 50% HP-β-CD) was >7 days and the “Stability at Room Temperature” value ([2]; M4N 1 mg/mL in 50% HP-β-CD, 1.25% PVP (w/v)) was <3 days. For the same molecule, the “Stability Time at Room Temperature” value ([2]; M4N 1 mg/mL in Peppermint Oil) was >3 days, the “stable at room temperature” value ([2]; M4N 1 mg/mL in Tween® 20) was “more than 7 days” and the “stable at room temperature” value ([2]; M4N 1 mg/mL in Tween® 80) was “more than 3 days”.
